Source: ChEMBL document CHEMBL3745645, “Synthesis, in vitro antitumor activity, dihydrofolate reductase inhibition, DNA intercalation and structure-activity relationship studies of 1,3,5-triazine analogues” (Bioorg Med Chem Lett, 2016)
The source made the active and inactive calls. The calls are words filed in the database; no cut-off is given here.

Tests used:
Assay type in all cases: functional
[1] = test system: CAKI-1; assay: Cytotoxicity against human Caki1 cells at 10 uM after 48 hrs by SRB assay
[2] = test system: RXF 393; assay: Cytotoxicity against human RXF393 cells at 10 uM after 48 hrs by SRB assay
[3] = test system: SN12C; assay: Cytotoxicity against human SN12C cells at 10 uM after 48 hrs by SRB assay; details: read-out: GI
[4] = test system: TK-10; assay: Cytotoxicity against human TK10 cells at 10 uM after 48 hrs by SRB assay
[5] = Cytotoxicity against human UO31 cells at 10 uM after 48 hrs by SRB assay; details: UO-31, 48 h, read-out: GI
[6] = Cytotoxicity against human DU145 cells at 10 uM after 48 hrs by SRB assay; details: DU-145, 48 h, read-out: GI
[7] = test system: MCF7; assay: Cytotoxicity against human MCF7 cells at 10 uM after 48 hrs by SRB assay; details: MCF7, 48 h, read-out: GI
[8] = test system: MDA-MB-231; assay: Cytotoxicity against human MDA-MB-231 cells at 10 uM after 48 hrs by SRB assay; details: MDA-MB-231, 48 h, read-out: GI
[9] = Cytotoxicity against human Hs 578T cells at 10 uM after 48 hrs by SRB assay; details: read-out: GI
[10] = test system: BT-549; assay: Cytotoxicity against human BT549 cells at 10 uM after 48 hrs by SRB assay
[11] = test system: T47D; assay: Cytotoxicity against human T47D cells at 10 uM after 48 hrs by SRB assay; details: read-out: GI
[12] = test system: MDA-MB-468; assay: Cytotoxicity against human MDA-MB-468 cells at 10 uM after 48 hrs by SRB assay
[13] = test system: CCRF-CEM; assay: Cytotoxicity against human CCRF-CEM cells at 10 uM after 48 hrs by SRB assay; details: read-out: GI
[14] = Cytotoxicity against human HL-60(TB) cells at 10 uM after 48 hrs by SRB assay; details: HL-60, 48 h, read-out: GI
[15] = test system: K562; assay: Cytotoxicity against human K562 cells at 10 uM after 48 hrs by SRB assay; details: K562, 48 h, read-out: GI
[16] = Cytotoxicity against human MOLT4 cells at 10 uM after 48 hrs by SRB assay; details: MOLT-4, 48 h, read-out: GI
[17] = Cytotoxicity against human RPMI8226 cells at 10 uM after 48 hrs by SRB assay; details: RPMI-8226, 48 h, read-out: GI
[18] = test system: SR; assay: Cytotoxicity against human SR cells at 10 uM after 48 hrs by SRB assay; details: read-out: GI
[19] = test system: A549; assay: Cytotoxicity against human A549 cells at 10 uM after 48 hrs by SRB assay; details: A549, 48 h, read-out: GI
[20] = Cytotoxicity against human HOP62 cells at 10 uM after 48 hrs by SRB assay; details: HOP-62, 48 h, read-out: GI
[21] = Cytotoxicity against human HOP92 cells at 10 uM after 48 hrs by SRB assay; details: HOP-92, 48 h, read-out: GI
[22] = test system: NCI-H226; assay: Cytotoxicity against human NCI-H226 cells at 10 uM after 48 hrs by SRB assay; details: NCI-H226, 48 h, read-out: GI
[23] = test system: NCI-H322M; assay: Cytotoxicity against human NCI-H322M cells at 10 uM after 48 hrs by SRB assay; details: read-out: GI
[24] = test system: NCI-H460; assay: Cytotoxicity against human NCI-H460 cells at 10 uM after 48 hrs by SRB assay; details: NCI-H460, 48 h, read-out: GI
[25] = test system: NCI-H522; assay: Cytotoxicity against human NCI-H522 cells at 10 uM after 48 hrs by SRB assay; details: NCI-H522, 48 h, read-out: GI
[26] = Cytotoxicity against human COLO205 cells at 10 uM after 48 hrs by SRB assay; details: COLO 205, 48 h, read-out: GI
[27] = test system: HCC 2998; assay: Cytotoxicity against human HCC2998 cells at 10 uM after 48 hrs by SRB assay
[28] = Cytotoxicity against human HCT116 cells at 10 uM after 48 hrs by SRB assay; details: HCT-116, 48 h, read-out: GI
[29] = Cytotoxicity against human HCT15 cells at 10 uM after 48 hrs by SRB assay; details: HCT-15, 48 h, read-out: GI
[30] = test system: HT-29; assay: Cytotoxicity against human HT-29 cells at 10 uM after 48 hrs by SRB assay; details: HT-29, 48 h, read-out: GI
[31] = test system: KM12; assay: Cytotoxicity against human KM12 cells at 10 uM after 48 hrs by SRB assay; details: KM12, 48 h, read-out: GI
[32] = test system: SW-620; assay: Cytotoxicity against human SW620 cells at 10 uM after 48 hrs by SRB assay
[33] = Cytotoxicity against human SF268 cells at 10 uM after 48 hrs by SRB assay; details: SF-268, 48 h, read-out: GI
[34] = Cytotoxicity against human SF295 cells at 10 uM after 48 hrs by SRB assay; details: SF-295, 48 h, read-out: GI
[35] = test system: SF-539; assay: Cytotoxicity against human SF539 cells at 10 uM after 48 hrs by SRB assay
[36] = Cytotoxicity against human SNB19 cells at 10 uM after 48 hrs by SRB assay; details: SNB-19, 48 h, read-out: GI
[37] = Cytotoxicity against human SNB75 cells at 10 uM after 48 hrs by SRB assay; details: SNB-75, 48 h, read-out: GI
[38] = test system: U-251; assay: Cytotoxicity against human U251 cells at 10 uM after 48 hrs by SRB assay; details: U-251, 48 h, read-out: GI
[39] = Cytotoxicity against human LOXIMVI cells at 10 uM after 48 hrs by SRB assay; details: LOX IMVI, read-out: GI
[40] = test system: Malme-3M; assay: Cytotoxicity against human MALME-3M cells at 10 uM after 48 hrs by SRB assay; details: read-out: GI
[41] = test system: M14; assay: Cytotoxicity against human M14 cells at 10 uM after 48 hrs by SRB assay; details: M14, 48 h, read-out: GI
[42] = test system: MDA-MB-435; assay: Cytotoxicity against human MDA-MB-435 cells at 10 uM after 48 hrs by SRB assay; details: MDA-MB-435, 48 h, read-out: GI
[43] = test system: SK-MEL-2; assay: Cytotoxicity against human SK-MEL-2 cells at 10 uM after 48 hrs by SRB assay
[44] = test system: SK-MEL-28; assay: Cytotoxicity against human SK-MEL-28 cells at 10 uM after 48 hrs by SRB assay
[45] = test system: SK-MEL-5; assay: Cytotoxicity against human SK-MEL-5 cells at 10 uM after 48 hrs by SRB assay; details: SK-MEL-5, 48 h, read-out: GI
[46] = test system: UACC-257; assay: Cytotoxicity against human UACC257 cells at 10 uM after 48 hrs by SRB assay
[47] = Cytotoxicity against human IGROV1 cells at 10 uM after 48 hrs by SRB assay; details: IGROV-1, 48 h, read-out: GI
[48] = Cytotoxicity against human OVCAR3 cells at 10 uM after 48 hrs by SRB assay; details: OVCAR-3, 48 h, read-out: GI
[49] = Cytotoxicity against human OVCAR4 cells at 10 uM after 48 hrs by SRB assay; details: OVCAR-4, 48 h, read-out: GI
[50] = test system: OVCAR-5; assay: Cytotoxicity against human OVCAR5 cells at 10 uM after 48 hrs by SRB assay
[51] = Cytotoxicity against human OVCAR8 cells at 10 uM after 48 hrs by SRB assay; details: OVCAR-8, 48 h, read-out: GI
[52] = Cytotoxicity against human NCI-ADR-RES cells at 10 uM after 48 hrs by SRB assay; details: read-out: GI
[53] = Cytotoxicity against human SKOV3 cells at 10 uM after 48 hrs by SRB assay; details: SK-OV-3, 48 h, read-out: GI
[54] = test system: 786-0; assay: Cytotoxicity against human 786-0 cells at 10 uM after 48 hrs by SRB assay
[55] = test system: A498; assay: Cytotoxicity against human A498 cells at 10 uM after 48 hrs by SRB assay; details: A498, 48 h, read-out: GI
[56] = test system: ACHN; assay: Cytotoxicity against human ACHN cells at 10 uM after 48 hrs by SRB assay; details: read-out: GI

Cc1nc2cc(Nc3nc(Nc4ccc(F)cc4)nc(Nc4ncccn4)n3)ccc2n1Cc1ccccc1
growth inhibition (GI) [1]: inactive
growth inhibition (GI) [2]: inactive
inhibition of growth at 10 µM [3]: 8.42%
growth inhibition (GI) [4]: inactive
inhibition of growth at 10 µM [5]: 27%
inhibition of growth at 10 µM [6]: 4.12%
inhibition of growth at 10 µM [7]: 20.1%
inhibition of growth at 10 µM [8]: 7.37%
inhibition of growth at 10 µM [9]: 20.9%
growth inhibition (GI) [10]: inactive
inhibition of growth at 10 µM [11]: 25.1%
growth inhibition (GI) [12]: inactive
inhibition of growth at 10 µM [13]: 63.2%
inhibition of growth at 10 µM [14]: 30.1%
inhibition of growth at 10 µM [15]: 41.3%
inhibition of growth at 10 µM [16]: 44.6%
inhibition of growth at 10 µM [17]: 57.4%
inhibition of growth at 10 µM [18]: 51.6%
inhibition of growth at 10 µM [19]: 17.8%
inhibition of growth at 10 µM [20]: 2.38%
inhibition of growth at 10 µM [21]: 18.4%
inhibition of growth at 10 µM [22]: 11.5%
inhibition of growth at 10 µM [23]: 5.47%
inhibition of growth at 10 µM [24]: 5.2%
inhibition of growth at 10 µM [25]: 22.5%
inhibition of growth at 10 µM [26]: 10.5%
growth inhibition (GI) [27]: inactive
inhibition of growth at 10 µM [28]: 15.8%
inhibition of growth at 10 µM [29]: 12.7%
inhibition of growth at 10 µM [30]: 14.8%
inhibition of growth at 10 µM [31]: 11.6%
growth inhibition (GI) [32]: inactive
inhibition of growth at 10 µM [33]: 11.2%
inhibition of growth at 10 µM [34]: 15.6%
growth inhibition (GI) [35]: inactive
inhibition of growth at 10 µM [36]: 7.38%
inhibition of growth at 10 µM [37]: 15.6%
inhibition of growth at 10 µM [38]: 13.2%
inhibition of growth at 10 µM [39]: 3.01%
inhibition of growth at 10 µM [40]: 7.94%
inhibition of growth at 10 µM [41]: 5.65%
inhibition of growth at 10 µM [42]: 9.24%
growth inhibition (GI) [43]: inactive
growth inhibition (GI) [44]: inactive
inhibition of growth at 10 µM [45]: 6.35%
growth inhibition (GI) [46]: inactive
inhibition of growth at 10 µM [47]: 24%
inhibition of growth at 10 µM [48]: 9.64%
inhibition of growth at 10 µM [49]: 20.2%
growth inhibition (GI) [50]: inactive
inhibition of growth at 10 µM [51]: 8.83%
inhibition of growth at 10 µM [52]: 10.5%
inhibition of growth at 10 µM [53]: 2.64%
growth inhibition (GI) [54]: inactive
inhibition of growth at 10 µM [55]: 11.5%
inhibition of growth at 10 µM [56]: 1.6%
